Laboratory results from ChEMBL document CHEMBL3046102, “Antibacterial and antifungal activities of some trimethoprim salts” (2012).
In brackets after ≈: the same amount, converted by molar mass.

Columns and labels:
Proteus vulgaris = assay: microbe, parasite or virus in culture; type: functional; settings: NRLL B-123
Description: Antibacterial activity against Proteus vulgaris NRLL B-123 after 24 to 48 hr by CLSI broth microdilution method

Klebsiella pneumoniae = assay: microbe, parasite or virus in culture; type: functional; settings: ATCC 700603
Description: Antibacterial activity against Klebsiella pneumoniae ATCC 700603 after 24 to 48 hr by CLSI broth microdilution method

Salmonella typhimurium = assay: microbe, parasite or virus in culture; type: functional, Salmonella enterica subsp. enterica serovar Typhimurium; settings: Salmonella enterica, NRLL B-4420
Description: Antibacterial activity against Salmonella enterica subsp. enterica serovar Typhimurium NRRL B-4420 after 24 to 48 hr by CLSI broth microdilution method

Staphylococcus aureus = assay: microbe, parasite or virus in culture; type: functional; settings: ATCC 25923
Description: Antibacterial activity against Staphylococcus aureus ATCC 25923 after 24 to 48 hr by CLSI broth microdilution method

Pseudomonas aeruginosa = assay: microbe, parasite or virus in culture; type: functional; settings: ATCC 27853
Description: Antibacterial activity against Pseudomonas aeruginosa ATCC 27853 after 24 to 48 hr by CLSI broth microdilution method

Enterococcus faecalis = assay: microbe, parasite or virus in culture; type: functional; settings: ATCC 29212
Description: Antibacterial activity against Enterococcus faecalis ATCC 29212 after 24 to 48 hr by CLSI broth microdilution method

Cyberlindnera jadinii = assay: Antifungal activity against Cyberlindnera jadinii NRRL Y-900 after 24 to 48 hr by CLSI broth microdilution method; type: functional; settings: Williopsis jadinii
Pichia kudriavzevii = assay: microbe, parasite or virus in culture; type: functional; settings: NRRL Y-7179
Description: Antifungal activity against Pichia kudriavzevii NRRL Y-7179 after 24 to 48 hr by CLSI broth microdilution method

Candida tropicalis = assay: microbe, parasite or virus in culture; type: functional; settings: NRRL Y-12968
Description: Antifungal activity against Candida tropicalis NRRL Y-12968 after 24 to 48 hr by CLSI broth microdilution method

Nakaseomyces glabratus [1] = assay: Antifungal activity against Candida glabrata clinical isolate after 24 to 48 hr by CLSI broth microdilution method; type: functional
Nakaseomyces glabratus [2] = assay: microbe, parasite or virus in culture; type: functional; settings: ATCC 36583
Description: Antifungal activity against Candida glabrata ATCC 36583 after 24 to 48 hr by CLSI broth microdilution method

Candida albicans [3] = assay: Antifungal activity against Candida albicans clinical isolate after 24 to 48 hr by CLSI broth microdilution method; type: functional
[Candida] zeylanoides = microbe, parasite or virus in culture; type: functional; settings: Dujonia zeylanoides, NRRL Y-1774
Description: Antifungal activity against Candida zeylanoides NRRL Y-1774 after 24 to 48 hr by CLSI broth microdilution method

Candida albicans [4] = assay: microbe, parasite or virus in culture; type: functional; settings: NRRL Y-27077
Description: Antifungal activity against Candida albicans NRRL Y-27077 after 24 to 48 hr by CLSI broth microdilution method

Candida parapsilosis = assay: microbe, parasite or virus in culture; type: functional; settings: Lodderomyces parapsilosis, NRRL Y-12969
Description: Antifungal activity against Candida parapsilosis NRRL Y-12969 after 24 to 48 hr by CLSI broth microdilution method

Escherichia coli = assay: microbe, parasite or virus in culture; type: functional; settings: ATCC 35218
Description: Antibacterial activity against Escherichia coli ATCC 35218 after 24 to 48 hr by CLSI broth microdilution method

Structure (SMILES) | MIC (Proteus vulgaris) [µg/mL] | MIC (Klebsiella pneumoniae) [µg/mL] | MIC (Salmonella typhimurium) [µg/mL] | MIC (Pseudomonas aeruginosa) [µg/mL] | MIC (Enterococcus faecalis) [µg/mL] | MIC (Nakaseomyces glabratus [1]) [µg/mL] | MIC (Nakaseomyces glabratus [2]) [µg/mL] | MIC (Candida albicans [4]) [µg/mL] | MIC (Escherichia coli) [µg/mL] | MIC (Staphylococcus aureus) [µg/mL] | MIC (Cyberlindnera jadinii) [µg/mL] | MIC (Pichia kudriavzevii) [µg/mL] | MIC (Candida tropicalis) [µg/mL] | MIC (Candida albicans [3]) [µg/mL] | MIC ([Candida] zeylanoides) [µg/mL] | MIC (Candida parapsilosis) [µg/mL]
O=C(N[C@H](CO)[C@H](O)c1ccc([N+](=O)[O-])cc1)C(Cl)Cl [CHLORAMPHENICOL] | 50 (≈ 155 µM) | 12.5 (≈ 38.7 µM) | 12.5 (≈ 38.7 µM) | 50 (≈ 155 µM) | 12.5 (≈ 38.7 µM) | – | – | – | – | 50 (≈ 155 µM) | – | – | – | – | – | –
CC(=O)N1CCN(c2ccc(OCC3COC(Cn4ccnc4)(c4ccc(Cl)cc4Cl)O3)cc2)CC1 (configuration not stated) [KETOCONAZOLE] | – | – | – | – | – | 3.12 (≈ 5.88 µM) | 25 (≈ 47 µM) | 12.5 (≈ 23.5 µM) | – | – | 12.5 (≈ 23.5 µM) | 25 (≈ 47 µM) | 12.5 (≈ 23.5 µM) | 3.12 (≈ 5.88 µM) | 25 (≈ 47 µM) | 1.56 (≈ 2.94 µM)
COc1cc(Cc2cnc(N)nc2N)cc(OC)c1OC [TRIMETHOPRIM] | 50 (≈ 172 µM) | 50 (≈ 172 µM) | 50 (≈ 172 µM) | 50 (≈ 172 µM) | 50 (≈ 172 µM) | 25 (≈ 86.1 µM) | 50 (≈ 172 µM) | 50 (≈ 172 µM) | 50 (≈ 172 µM) | – | – | – | – | – | – | –

Continued, in another order:

MIC (Proteus vulgaris) [µg/mL] | MIC (Klebsiella pneumoniae) [µg/mL] | MIC (Salmonella typhimurium) [µg/mL] | MIC (Pseudomonas aeruginosa) [µg/mL] | MIC (Enterococcus faecalis) [µg/mL] | MIC (Nakaseomyces glabratus [1]) [µg/mL] | MIC (Nakaseomyces glabratus [2]) [µg/mL] | MIC (Candida albicans [4]) [µg/mL] | MIC (Escherichia coli) [µg/mL] | Structure (SMILES) | MIC (Staphylococcus aureus) [µg/mL] | MIC (Cyberlindnera jadinii) [µg/mL] | MIC (Pichia kudriavzevii) [µg/mL] | MIC (Candida tropicalis) [µg/mL] | MIC (Candida albicans [3]) [µg/mL] | MIC ([Candida] zeylanoides) [µg/mL] | MIC (Candida parapsilosis) [µg/mL]
50 | 50 | 50 | 50 | 50 | 50 | 50 | 50 | 50 | COc1cc(Cc2cnc(N)nc2N)cc(OC)c1OC.O=C(O)/C=C\C(=O)O [TRIMETHOPRIM MALEIC ACID SALT] | – | – | – | – | – | – | –
50 | 50 | 50 | 50 | 50 | 25 | 50 | 50 | 50 | COc1cc(Cc2cnc(N)nc2N)cc(OC)c1OC.O.O.O=C(O)C(=O)O [TRIMETHOPRIM OXALIC ACID SALT DIHYDRATE] | – | – | – | – | – | – | –
